From patent publication US20220112237A1, “AMINO ACID COMPOSITION HAVING CO-AMORPHOUS STRUCTURE” (AJINOMOTO CO., INC., priority 2019, published 2022)

Legend:
[1] = Confirmation of formation of amorphous product by powder X-ray diffraction; assay type: physicochemical; details: Cys2 with Arg or Cys2 alone, ball mill as Example 1, 30° C., FIG. 6
Method: The solid powder obtained in (1) was measured by the powder X-ray diffraction apparatus (“Empyrean”, manufactured by Malvern Panalytical), and the powder X-ray diffraction patterns of the solid were obtained. In the drawing, line a represents the pattern of the mixture at time zero, line b represents time zero plus 4 hours, and line c represents time zero plus 12 hours. As a result, a well-defined peak characteristic of crystal structure was not found. From this, it was confirmed that the solid obtained in (1) was amorphous.
The solid obtained in (1) was measured by the same powder X-ray diffraction apparatus as Example 1, and the powder X-ray diffraction patterns of the solid are shown in FIG. 4.
The solid obtained in (1) was measured by the same powder X-ray diffraction apparatus as Example 1, and the powder X-ray diffraction patterns were obtained. […]
The solid obtained in (1) was measured by the same powder X-ray diffraction apparatus as Example 1, and the powder X-ray diffraction patterns of the solid are shown in FIG. 7.
The solid obtained in (1) was measured by the same powder X-ray diffraction apparatus as Example 1, and the powder X-ray diffraction patterns of the solid are shown in FIG. 8.
The solid obtained in (1) was measured by the same powder X-ray diffraction apparatus as Example 1, and the powder X-ray diffraction patterns of the solid are shown in FIG. 9. […]

[2] = Test to confirm the dissolved amount (Tyr concentration of supernatant by HPLC); assay type: physicochemical; details: 130 mg in 100 mL water, pH 6.5-7.5, 25° C., stirred, after 24 hours
Method: […] After the powder was dissolved completely, the pH was adjusted using 5 mol/L hydrochloric acid to be within the range of 6.5-7.5. Bottles A-D were immersed in a water bath (“NCG-3300”, manufactured by Tokyo Rikakikai Co., Ltd.) at 25° C., and bottles A and C were stirred by the magnetic stirrer, and bottles B and D were allowed to stand without stirring. After 2 hours, 2 mL was sampled from each bottle, and filtered using a 0.45 μm filter (“Millex”, Merck). The filtered sample was diluted 50 times, and the Tyr concentration of the supernatant was determined using high-performance liquid chromatography (HPLC) (“1100 Series”, manufactured by Agilent).
The above process was conducted again after 24 hours, 48 hours, and 333 hours. In the drawing, ◯, Δ, ● and ▴ represent A (stirred, 138 mg), B (allowed to stand, 138 mg), C (stirred, 220 mg) and D (allowed to stand, 220 mg), respectively. […]
After 5 minutes, 10 minutes, 30 minutes, 1 hour, 2 hours, 24 hours, and 168 hours from the start of stirring, 2 mL was sampled from each sample bottle, and filtered using the 0.45 […] filter (“Millex”, Merck). The filtered sample was diluted 50 times, and the Tyr concentration of the supernatant was determined using the high-performance liquid chromatography (HPLC) (“1100 Series”, manufactured by Agilent).

Row | Formation of amorphous product after pulverization [1] | Tyr concentration of the supernatant [2] | SMILES
1 | the crystal property remained | – | N[C@@H](CSSC[C@H](N)C(=O)O)C(=O)O [compound 7, Cystine]
2 | – | 430 mg/L | N[C@@H](Cc1ccc(O)cc1)C(=O)O [Tyr crystal, tyrosine]
